According to patent publication US11376324B2, “Sting activating nanovaccine for immunotherapy” (The Board of Regents of the University of Texas System, priority 2016, dated 2022):

What was measured:
[1] = Histology of major organs (H&E); type: in vivo, C57BL/6 mice; settings: repeated injections, 10 μg OVA plus 150 μg
Description: FIG. 14. Histology analyses of major organs for safety assessment of PC7A nanovaccine. Representative H&E sections of the main organs from C57BL/6 mice after repeated injections of 10 μg OVA plus 150 μg PC7A NP or the same dose of Poly(I:C). Mice were sacrificed 24 h after the second injection (n=5 for each group).

[2] = system: IRF7 and CXCL10; assay: q-RT-PCR of interferon-stimulated genes at injection site; type: in vivo, mice; settings: local tissue after s.c. injection
Text: Samples were run in triplicate.

[3] = system: B16-OVA tumor; assay: B16-OVA melanoma tumor therapy; type: in vivo, C57BL/6 mice; settings: peptide 0.5 μg, s.c. day 5 and booster 5 days later
Description: Six to eight week old mice (n=10 for each group) were injected subcutaneously with B16-OVA or B16F10 melanoma cells (1.5×10^5), or TC-1 cells (1.5×10^5), MC38 cells (5×10^5) into the right flank of mice. […] Or at day 3, 6, 9 and 12, some groups were i.p. injected with 200 μg checkpoint inhibitors (anti-mPD-1, BioXcell, BE0146) for comparison or synergy evaluation. The tumor growth was subsequently measured twice a week using a digital caliper and calculated as 0.5×length×width^2 by blinded investigators. Mice were killed when tumor […] reached 1500 mm^3, the end point of tumor detection is 2-fold of the longest survival time (LST) of control group, so around 40 days for melanoma tumor model, and around 60 days for TC-1 and MC38 tumor models.

Row | Substance | histology of major organs (liver, spleen, kidney, heart) [1] | IRF7 and CXCL10 expression, 2 to 8 h [2] | tumor growth inhibition / survival benefit (in words) [3]
1 | Poly(I:C) | ballooned hepatocytes indicative of steatohepatitis | higher response in IRF7 and CXCL10 expressions in the early time points from 2 to 8 h than PC7A NP | –
2 | SIINFEKLTEWTSSNVMEERKIKV [OVA257-280] | – | – | did not offer any significant tumor growth inhibition or survival benefit over the PBS control
